According to ChEMBL document CHEMBL3797055, “Glabridin-chalcone hybrid molecules: drug resistance reversal agent against clinical isolates of methicillin-resistant Staphylococcus aureus” (Medchemcomm, 2016):
≈ marks a conversion by molar mass, not a printed value.

Assays:
Format in all cases: functional
Staphylococcus aureus [1] = assay: Antibacterial activity against clinical isolates of methicillin-resistant Staphylococcus aureus P4629 by broth microdilution assay
Staphylococcus aureus [2] = assay: Antibacterial activity against Staphylococcus aureus MTCC 96 by broth microdilution assay
Staphylococcus aureus [3] = assay: Antibacterial activity against clinical isolates of methicillin-resistant Staphylococcus aureus P4423 by broth microdilution assay
Staphylococcus aureus [4] = assay: Antibacterial activity against clinical isolates of methicillin-resistant Staphylococcus aureus P4650 by broth microdilution assay
Staphylococcus aureus [5] = assay: Antibacterial activity against clinical isolates of methicillin-resistant Staphylococcus aureus ST2071 by broth microdilution assay
Staphylococcus aureus [6] = assay: Antibacterial activity against clinical isolates of methicillin-resistant Staphylococcus aureus ST10760 by broth microdilution assay
Staphylococcus aureus [7] = assay: Antibacterial activity against clinical isolates of methicillin-resistant Staphylococcus aureus ST10342 by broth microdilution assay

| SMILES | MIC (Staphylococcus aureus [1]) [µg/mL] | MIC (Staphylococcus aureus [2]) [µg/mL] | MIC (Staphylococcus aureus [3]) [µg/mL] | MIC (Staphylococcus aureus [4]) [µg/mL] | MIC (Staphylococcus aureus [5]) [µg/mL] | MIC (Staphylococcus aureus [6]) [µg/mL] | MIC (Staphylococcus aureus [7]) [µg/mL] |
| --- | --- | --- | --- | --- | --- | --- | --- |
| COc1ccc([C@@H]2COc3c(cc(/C=C/C(=O)c4ccccc4)c4c3C=CC(C)(C)O4)C2)c(OC)c1 | 25 (≈ 51.8 µM) | 25 (≈ 51.8 µM) | 25 (≈ 51.8 µM) | 25 (≈ 51.8 µM) | 25 (≈ 51.8 µM) | 25 (≈ 51.8 µM) | 25 (≈ 51.8 µM) |
| COc1ccc([C@@H]2COc3c(cc(/C=C/C(=O)c4ccc[nH]4)c4c3C=CC(C)(C)O4)C2)c(OC)c1 | > 100 | 100 (≈ 212 µM) | > 100 | > 100 | > 100 | > 100 | > 100 |
| COc1cc(OC)c([C@@H]2COc3c(cc(C=O)c4c3C=CC(C)(C)O4)C2)cc1C=O | > 100 | > 100 | > 100 | > 100 | > 100 | > 100 | > 100 |
| COc1ccc(C(=O)/C=C/c2cc([C@@H]3COc4c(ccc5c4C=CC(C)(C)O5)C3)c(OC)cc2OC)cc1 | > 100 | 50 (≈ 97.5 µM) | > 100 | > 100 | > 100 | > 100 | > 100 |
| COc1ccc(C(=O)/C=C/c2cc([C@@H]3COc4c(cc(/C=C/C(=O)c5ccc(OC)cc5)c5c4C=CC(C)(C)O5)C3)c(OC)cc2OC)cc1 | > 100 | 100 (≈ 149 µM) | > 100 | > 100 | > 100 | > 100 | > 100 |
| COc1cc(OC)c([C@@H]2COc3c(cc(/C=C/C(=O)c4ccccc4)c4c3C=CC(C)(C)O4)C2)cc1/C=C/C(=O)c1ccccc1 | 25 (≈ 40.8 µM) | 25 (≈ 40.8 µM) | 25 (≈ 40.8 µM) | 25 (≈ 40.8 µM) | 25 (≈ 40.8 µM) | 25 (≈ 40.8 µM) | 25 (≈ 40.8 µM) |
| COc1cc(OC)c([C@@H]2COc3c(ccc4c3C=CC(C)(C)O4)C2)cc1/C=C/C(=O)c1cc(OC)c(OC)c(OC)c1 | 25 (≈ 43.7 µM) | 25 (≈ 43.7 µM) | 25 (≈ 43.7 µM) | 25 (≈ 43.7 µM) | 25 (≈ 43.7 µM) | 25 (≈ 43.7 µM) | 25 (≈ 43.7 µM) |
| COc1ccc(C(=O)/C=C/c2cc([C@@H]3COc4c(ccc5c4C=CC(C)(C)O5)C3)c(OC)cc2OC)c(OC)c1 | 25 (≈ 46.1 µM) | 12.5 (≈ 23 µM) | 25 (≈ 46.1 µM) | 12.5 (≈ 23 µM) | 25 (≈ 46.1 µM) | 25 (≈ 46.1 µM) | 25 (≈ 46.1 µM) |
| COc1cccc(C(=O)/C=C/c2cc3c(c4c2OC(C)(C)C=C4)OC[C@@H](c2ccc(OC)cc2OC)C3)c1 | 25 (≈ 48.8 µM) | 25 (≈ 48.8 µM) | 25 (≈ 48.8 µM) | 25 (≈ 48.8 µM) | 25 (≈ 48.8 µM) | 25 (≈ 48.8 µM) | 25 (≈ 48.8 µM) |
| COc1cc(OC)c([C@@H]2COc3c(ccc4c3C=CC(C)(C)O4)C2)cc1/C=C/C(=O)c1ccccc1OC | > 100 | > 100 | > 100 | > 100 | > 100 | > 100 | > 100 |
| COc1ccc([C@@H]2COc3c(cc(/C=C/C(=O)c4ccccc4OC)c4c3C=CC(C)(C)O4)C2)c(OC)c1 | 25 (≈ 48.8 µM) | 25 (≈ 48.8 µM) | 50 (≈ 97.5 µM) | 25 (≈ 48.8 µM) | 50 (≈ 97.5 µM) | 50 (≈ 97.5 µM) | 50 (≈ 97.5 µM) |
| CCn1cc(C(=O)O)c(=O)c2cc(F)c(N3CCNCC3)cc21 [NORFLOXACIN] | 500 (≈ 1570 µM) | 1.56 (≈ 4.89 µM) | 250 (≈ 783 µM) | 125 (≈ 391 µM) | 500 (≈ 1570 µM) | 500 (≈ 1570 µM) | 250 (≈ 783 µM) |
| COc1cccc(C(=O)/C=C/c2cc([C@@H]3COc4c(cc(/C=C/C(=O)c5cccc(OC)c5)c5c4C=CC(C)(C)O5)C3)c(OC)cc2OC)c1 | > 100 | > 100 | > 100 | > 100 | > 100 | > 100 | > 100 |
| COc1ccc([C@@H]2COc3c(cc(C=O)c4c3C=CC(C)(C)O4)C2)c(OC)c1 | > 100 | > 100 | > 100 | > 100 | > 100 | > 100 | > 100 |
| COc1cc(OC)c([C@@H]2COc3c(ccc4c3C=CC(C)(C)O4)C2)cc1/C=C/C(=O)c1ccc(OC)c(OC)c1 | > 100 | 100 (≈ 184 µM) | > 100 | > 100 | > 100 | > 100 | > 100 |
| COc1cc(OC)c([C@@H]2COc3c(ccc4c3C=CC(C)(C)O4)C2)cc1C=O | > 100 | > 100 | > 100 | > 100 | > 100 | > 100 | > 100 |
| COc1ccc(C(=O)/C=C/c2cc([C@@H]3COc4c(cc(/C=C/C(=O)c5ccc(OC)cc5OC)c5c4C=CC(C)(C)O5)C3)c(OC)cc2OC)c(OC)c1 | 50 (≈ 68.2 µM) | 50 (≈ 68.2 µM) | 50 (≈ 68.2 µM) | 50 (≈ 68.2 µM) | 50 (≈ 68.2 µM) | 50 (≈ 68.2 µM) | 50 (≈ 68.2 µM) |
| COc1ccc([C@@H]2COc3c(cc(/C=C/C(=O)c4cc(OC)c(OC)c(OC)c4)c4c3C=CC(C)(C)O4)C2)c(OC)c1 | 25 (≈ 43.7 µM) | 25 (≈ 43.7 µM) | 25 (≈ 43.7 µM) | 25 (≈ 43.7 µM) | 25 (≈ 43.7 µM) | 25 (≈ 43.7 µM) | 25 (≈ 43.7 µM) |
| COc1ccc(C(=O)/C=C/c2cc3c(c4c2OC(C)(C)C=C4)OC[C@@H](c2ccc(OC)cc2OC)C3)c(OC)c1 | > 100 | > 100 | > 100 | > 100 | > 100 | > 100 | > 100 |
| COc1cc(OC)c([C@@H]2COc3c(ccc4c3C=CC(C)(C)O4)C2)cc1/C=C/C(=O)c1ccc[nH]1 | 50 (≈ 106 µM) | 25 (≈ 53 µM) | 50 (≈ 106 µM) | 50 (≈ 106 µM) | 50 (≈ 106 µM) | 50 (≈ 106 µM) | 50 (≈ 106 µM) |
| COc1cc(OC)c([C@@H]2COc3c(cc(/C=C/C(=O)c4ccc[nH]4)c4c3C=CC(C)(C)O4)C2)cc1/C=C/C(=O)c1ccc[nH]1 | 50 (≈ 84.6 µM) | 50 (≈ 84.6 µM) | 50 (≈ 84.6 µM) | 50 (≈ 84.6 µM) | 50 (≈ 84.6 µM) | 50 (≈ 84.6 µM) | 50 (≈ 84.6 µM) |
| COc1cc(OC)c([C@@H]2COc3c(ccc4c3C=CC(C)(C)O4)C2)cc1/C=C/C(=O)c1ccccc1 | 25 (≈ 51.8 µM) | 25 (≈ 51.8 µM) | 25 (≈ 51.8 µM) | 25 (≈ 51.8 µM) | 25 (≈ 51.8 µM) | 25 (≈ 51.8 µM) | 25 (≈ 51.8 µM) |
| COc1cccc(C(=O)/C=C/c2cc([C@@H]3COc4c(ccc5c4C=CC(C)(C)O5)C3)c(OC)cc2OC)c1 | 50 (≈ 97.5 µM) | 25 (≈ 48.8 µM) | 50 (≈ 97.5 µM) | 50 (≈ 97.5 µM) | 50 (≈ 97.5 µM) | 50 (≈ 97.5 µM) | 50 (≈ 97.5 µM) |
| COc1ccc(C(=O)/C=C/c2cc3c(c4c2OC(C)(C)C=C4)OC[C@@H](c2ccc(OC)cc2OC)C3)cc1 | > 100 | > 100 | > 100 | > 100 | > 100 | > 100 | > 100 |
| COc1cc(OC)c([C@@H]2COc3c(ccc4c3C=CC(C)(C)O4)C2)cc1/C=C/C(=O)c1ccco1 | 25 (≈ 52.9 µM) | 25 (≈ 52.9 µM) | 25 (≈ 52.9 µM) | 25 (≈ 52.9 µM) | 25 (≈ 52.9 µM) | 25 (≈ 52.9 µM) | 25 (≈ 52.9 µM) |
| COc1cc(OC)c([C@@H]2COc3c(cc(/C=C/C(=O)c4ccccc4OC)c4c3C=CC(C)(C)O4)C2)cc1/C=C/C(=O)c1ccccc1OC | 100 (≈ 149 µM) | 50 (≈ 74.3 µM) | 100 (≈ 149 µM) | 100 (≈ 149 µM) | 100 (≈ 149 µM) | 100 (≈ 149 µM) | 100 (≈ 149 µM) |
| COc1cc(OC)c([C@@H]2COc3c(cc(/C=C/C(=O)c4cc(OC)c(OC)c(OC)c4)c4c3C=CC(C)(C)O4)C2)cc1/C=C/C(=O)c1cc(OC)c(OC)c(OC)c1 | 100 (≈ 126 µM) | 50 (≈ 63.1 µM) | 100 (≈ 126 µM) | 100 (≈ 126 µM) | 100 (≈ 126 µM) | 100 (≈ 126 µM) | 100 (≈ 126 µM) |
| COc1ccc([C@@H]2COc3c(ccc4c3C=CC(C)(C)O4)C2)c(OC)c1 | > 100 | > 100 | > 100 | > 100 | > 100 | > 100 | > 100 |
